Experimental data reported in patent US20230372307A1, “COMBINATION THERAPY USING BAX ACTIVATOR AGENT” (Albert Einstein College of Medicine, priority 2020, published 2023).
Where two headings read alike, the source gives them in different places.

Legend:
BCL-w = target: T1, BCL-w (Homo sapiens, UniProt Q92843); settings: cited from earlier work
T1 sequence (Q92843 1-193): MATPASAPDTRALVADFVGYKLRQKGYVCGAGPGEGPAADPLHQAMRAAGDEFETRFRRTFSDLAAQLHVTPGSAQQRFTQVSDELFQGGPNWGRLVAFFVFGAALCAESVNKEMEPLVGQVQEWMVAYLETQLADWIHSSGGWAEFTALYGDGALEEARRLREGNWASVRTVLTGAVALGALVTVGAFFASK

BCL-XL = BCL-XL (Homo sapiens, UniProt Q07817); settings: cited from earlier work
Sequence of BCL-XL (Q07817 whole entry): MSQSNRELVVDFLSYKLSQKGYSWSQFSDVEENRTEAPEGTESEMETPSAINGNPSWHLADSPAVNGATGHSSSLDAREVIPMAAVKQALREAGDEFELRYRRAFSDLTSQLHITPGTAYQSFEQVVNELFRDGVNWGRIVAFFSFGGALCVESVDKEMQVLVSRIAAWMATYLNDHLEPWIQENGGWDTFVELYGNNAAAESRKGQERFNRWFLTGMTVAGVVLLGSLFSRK

BCL-2 = BCL-2 (Homo sapiens, UniProt P10415); settings: cited from earlier work
Sequence of BCL-2 (P10415 whole entry): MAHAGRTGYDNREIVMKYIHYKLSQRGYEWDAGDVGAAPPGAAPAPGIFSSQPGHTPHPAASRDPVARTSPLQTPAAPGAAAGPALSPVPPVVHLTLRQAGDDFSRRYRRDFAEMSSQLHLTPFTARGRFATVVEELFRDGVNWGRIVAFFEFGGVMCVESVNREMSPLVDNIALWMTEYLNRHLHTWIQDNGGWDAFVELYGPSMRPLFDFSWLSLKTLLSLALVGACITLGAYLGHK

SU-DHL5 = test: Cell viability assay (CellTiter-Glo) in SU-DHL5; assay type: cell-based; settings: Homo sapiens
Protocol: (§1) CELL VIABILITY ASSAY. […] Cell viability was assayed at 72 hrs by addition of CellTiter-Glo Assay reagents according to the manufacturer's protocol (Promega), and luminescence measured using a F200 PRO microplate reader (TECAN). […] Excluding high-throughput drug screenings, viability assays were performed in at least triplicate and the data normalized to 1% vehicle-treated control wells. IC50 values were determined by nonlinear regression analysis using Prism software (Graphpad). Dilutions of compounds was performed using a TECAN D300e Digital Dispenser from 10 mM stocks. The BLISS calculation was determined using the Combenefit program as previously described by Di Veroli et al., Bioinformatics.

COLO-1 PDX = test: COLO-1 patient-derived xenograft efficacy study; assay type: in vivo, NOD SCID mice; settings: 200 mg/kg BTSA1.2, 50 mg/kg Navitoclax, oral daily up to 18 days
Text: 6-8 weeks old NOD SCID male mice were purchased from Charles River. […] PDX characterization: mice were divided into two groups COLO-1 and COLO-2 (n=3) were divided into two groups. Tumor was collected once tumor reached a volume of ˜1,000 mm^3. […] Treatments started once tumors reached a volume of ˜200 mm^3. Tumor volume was monitored every 3-4 days by caliper measurements until the cessation of the experiment when tumors reached an ethically unacceptable size or after 18 days of daily treatment (whichever came first). Body weight of mice were monitored during treatment.

[1] = test system: leukemia and lymphoma cell lines; test: cells; settings: Homo sapiens, 72 h, read-out: mean cell viability IC50
Protocol: as §1

BAX = target: T2, BAX (Homo sapiens, UniProt Q07812); test: BIM SAHB-BAX competition fluorescence polarization assay (FPA); assay type: binding; settings: FITC-BIM SAHBA2 50 nM, BAX 500 nM
T2 construct: serial dilutions of full-length BAX; made in house; host or cells: Escherichia coli
T2 sequence (Q07812 whole entry): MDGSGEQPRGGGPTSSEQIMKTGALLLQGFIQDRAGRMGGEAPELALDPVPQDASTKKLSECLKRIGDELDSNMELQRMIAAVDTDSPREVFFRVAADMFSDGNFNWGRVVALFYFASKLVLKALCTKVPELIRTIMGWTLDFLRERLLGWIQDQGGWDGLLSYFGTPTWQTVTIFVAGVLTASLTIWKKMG
Protocol: PRODUCTION OF RECOMBINANT BAX PROTEIN. […] BAX wild type was purified by size-exclusion chromatography in a buffer containing 20 mM HEPES pH 7.2, 150 mM KC1, 1 mM DTT. Superdex 75 10/300 GL and 200 10/300 GL (GE Healthcare) columns were used.
FLUORESCENCE POLARIZATION BINDING As SAYS. […] Firstly, direct binding isotherms were generated by incubating FITC-BIM SAHBA2 (50 nM) with serial dilutions of full-length BAX and fluorescence polarization was measured at 20 min on a F200 PRO microplate reader (TECAN). Subsequently, in competition assays, a serial dilution of small-molecule or acetylated BIM SAHBA2 (Ac-BIM SAHB) was combined with FITC-BIM SAHBA2 (50 nM), followed by the addition of recombinant protein at EC75 concentration, as determined by the direct binding assay (BAX: 500 nM). EC50 and IC50 values were calculated by nonlinear regression analysis of competitive binding curves using Graphpad Prism software.

[2] = BTSA1.2 and Navitoclax combination in vivo toxicity study; set-up: species or system CD1-IGS mice; settings: 200 mg/kg BTSA1.2, 100 mg/kg Navitoclax, oral daily for 7 days
Text: 6-8 weeks old CD1-IGS male mice were purchased from Charles River. […] Mice were monitored daily; body weight and peripheral blood counts were monitored at the indicated days.

solid tumor cell lines = test: Cell viability, solid tumor cell lines of the 46-line panel; assay type: cell-based; settings: Homo sapiens, read-out: mean cell viability IC50
Protocol: as §1

SW480 = test: Cell viability (CellTiter-Glo), SW480; assay type: cell-based, human; settings: SW480, 72 hrs
Protocol: as §1

SW480 xenograft = test: SW480 tumor xenograft efficacy and pharmacodynamic study; assay type: in vivo, nu/nu nude mice; settings: 200 mg/kg BTSA1.2, 100 mg/kg Navitoclax, oral daily
Text: TUMOR XENOGRAFT STUDIES. 6-8 weeks old nu/nu nude male mice were purchased from Charles River. […] For efficacy the efficacy study, treatments started once tumors reached a volume of ˜200 mm^3. […] Body weight of mice were monitored during treatment. For the pharmacodynamic study, treatments started once tumors reached a volume of ˜400 mm^3, after 3 days of daily treatment mice were euthanized and tumors were collected for analysis. Ex-Vivo BHS PROFILING. SW480 xenograft vehicle and combination treated tumors, and COLO-1 and COLO-2 PDX tumors were analyzed by BH3 profiling under basal conditions. Single cells from tumors were isolated by mechanically pass them through a […] strainer filter with cold PBS. SW480 xenograft tumors: […] PDX tumors: […] Single cell suspensions were prepared in 1:1 JC-1-MEB buffer, as previously described, and were kept at room temperature for 10 min to allow for cell permeabilization and dye equilibration. After adding the cells to the 384-well plate, 2.0×10^4 cells/well, fluorescence was measured at 590 nm emission 545 nm excitation using the M1000 microplate reader (TECAN) at 30° C. every 15 min for a total of 2 hrs.

[3] = Pharmacokinetic analysis of BTSA1.2 in mice; assay type: in vivo; settings: for AUC(0-inf): read-out: AUCinf_obs; for MRT inf: read-out: MRTINF_obs
Protocol: […] […]. ICR (CD-1) male mice were fasted at least 3 hrs and water was available ad libitum before the study. Animals were housed in a controlled environment, target conditions: temperature 18-29° C., relative humidity 30 to 70%. Temperature and relative humidity were monitored daily. […] Experiments performed at […] joint Biopharmacy Laboratory.

in vivo = settings: both, CD1-IGS, mouse, po
Protocol: MAXIMUM TOLERATED DOSE (MTD) AND IN VIVO TOXICITY STUDIES. […] Mice were monitored daily and body weight was monitored at the indicated days. After 14 days of the first treatment, mice were subject to euthanasia and necropsy (Histology and Comparative Pathology Facility, Albert Einstein College of Medicine) and tissues (e.g. spleen, liver, kidney, lung, heart) were harvested for fixation in 10% buffered formalin (Fisher Scientific) for pathology analysis. […] Blood counts were determined on a Forcyte Veterinary Hematology Analyzer (Oxford Science Inc.). […] Histological evaluation of tissues and necropsy performed by the Histology and Comparative Pathology Facility board-certified veterinary pathologist.

U937 = test: Cell viability (CellTiter-Glo), U937; assay type: cell-based, human; settings: U937, 72 hrs
Protocol: as §1

OCI-AML3 = test: Cell viability (CellTiter-Glo), OCI-AML3; assay type: cell-based, human; settings: OCI-AML3, 72 hrs
Protocol: as §1

COLO230 = test: Cell viability (CellTiter-Glo), COLO230; assay type: cell-based, human; settings: COLO230, 72 hrs
Protocol: as §1

[4] = previously determined by Tse et al; cited from earlier work
BAX:BCL-XL complexes = target: T3, BAX:BCL-XL complexes (Homo sapiens, UniProt Q07812); test: BAX co-immunoprecipitation and immunoblotting; assay type: cell-based; settings: 4 hrs treatment
T3 construct: endogenous in cells; host or cells: BxPC-3, SW480, Calu-6
T3 sequence (Q07812 whole entry, one chain of several): as the sequence (Q07812 whole entry) above
Protocol: Protein lysates were obtained by cell lysis in 0.2% NP-40 buffer (50 mM Tris-HCL, 150 mM NaCl, 1 mM EDTA, 10% Glycerol, 0.2% NP-40, pH 7.50) Immunoprecipitation was performed in 600 mL of 400 μg of proteins, which was precleared by centrifugation followed by exposure to 12 μL (50% slurry) protein A/G beads (Santa Cruz) at 4° C. for 30 min. […] Samples were then exposed to 20 μL (50% slurry) protein A/G beads (Santa Cruz) at 4° C. for 2 hrs and later centrifuged and washed three times with 0.2% NP-40 buffer and boiled in loading buffer (Life Technologies). […] For visualization of proteins with Odyssey Infrared Imaging System (LI-COR Biosciences) membranes were blocked in Odyssey Blocking Buffer (LI-COR Biosciences). Primary antibodies were incubated overnight at 4° C. in a 1:1,000 dilution. After washes, membranes were incubated with an IRdye800-conjugated goat anti-rabbit IgG or IRdye800-conjugated goat anti-mouse IgG secondary antibodies (LI-COR Biosciences) in a 1:10,000 and 1:20,000 dilution, respectively.
After 2 hr, FBS was supplemented to a final concentration of 10%. […] The supernatants were isolated by centrifugation at 15,000×g for 10 min and the mitochondrial pellets solubilized in NP-40 lysis buffer (50 mM Tris-HCL pH 7.4, 150 mM NaCl, 5 mM MgCl2, 1 Mm EGTA, 10% Glycerol, 0.2% NP-40). […]

Calu-6 BAX KO cells = test: Viability and caspase 3/7 in WT and CRISPR/Cas9 BAX KO Calu-6 cells; assay type: cell-based, human
Protocol: as §1
Assays were performed at least in triplicate.

[5] = SU-DHL-5, 72 hrs, read-out: Viability Inhibition- SU- DHL5- IC50
[6] = male, ICR (CD-1), mouse, IV 1 mg/kg, mice plasma, Mean
[7] = male, ICR (CD-1), mouse, PO 3 mg/kg, mice plasma, Mean
[8] = SU-DHL-5, 72 h, read-out: Viability Inhibition- SU- DHL5- IC50 (μM)

SMILES: CN(C)CC[C@H](CSc1ccccc1)Nc1ccc(S(=O)(=O)NC(=O)c2ccc(N3CCN(Cc4ccccc4-c4ccc(Cl)cc4)CC3)cc2)cc1[N+](=O)[O-] [ABT-737]
- affinity (BCL-w): < 1 mol/L
- affinity (BCL-XL): < 1 mol/L
- affinity (BCL-2): < 1 mol/L

SMILES: CCOc1ccccc1NN=C1C(=O)N(c2nc(-c3ccccc3)cs2)N=C1C [BAM7, reference compound]
- IC50 (SU-DHL5; [5]): > 25 µM

SMILES: Cc1nc(N/N=C2\C(=O)N(c3nc(-c4ccccc4)cs3)N=C2c2ccccc2)sc1C [BTSA1.2, 4-(2-(4,5-dimethylthiazol-2-yl)hydrazono)-5-phenyl-2-(4-phenyl-thiazol-2-yl)-2,4-dihydro-3H-pyrazol-3-one]
- tumor growth (COLO-1 PDX): some PDX showed to respond to BTSA1.2 only treatment as their tumor growth was suppressed
- IC50 [1]: < 3000 nM
- IC50 (BAX): 109 nM
- body weight, blood counts and organs [2]: body weight and blood counts were measured in normal levels but reduction in white blood cells and lymphocytes counts was observed after repeated dosing
- necropsy finding (200 mg/kg BTSA1, 300 mg/kg BTSA1.2, oral gavage daily): die by kidney failure after 3 days of treatment
- body weights and organ histology (BTSA1.2 up to 200 mg/kg oral): constant body weights and organs examined were between normal histologic limits
- dose limiting toxicity (DLT) (oral daily for 5 days): 300 mg/kg
- IC50 (solid tumor cell lines; 72 h): > 10000 nM
- single agent effect on cell viability (SW480): resistant
- tumor growth (SW480 xenograft): no significant efficacy in reducing tumor growth
- CL_obs ([3]; IV 1 mg/kg, mice plasma, Mean): 0.282
- VSS_obs ([3]; IV 1 mg/kg, mice plasma, Mean): 555.803
- bioavailability ([3]; male, ICR (CD-1), mouse, plasma, 3 mg/kg, oral administration, mice, read-out: oral bioavailability (% F)): ~50%
- Cmax ([3]; male, ICR (CD-1), mouse, plasma, 3 mg/kg, oral administration, mice, read-out: peak concentration (Cmax)): ~8 µM
- AUC ([3]; male, ICR (CD-1), mouse, plasma, 3 mg/kg, oral administration, mice, read-out: plasma exposure (AUC)): ~100 µM·h
- half-life ([3]; male, ICR (CD-1), mouse, plasma, iv, 1 mg/kg, IV 1 mg/kg, mice plasma, Mean, read-out: T1/2 (converted)): 24.6 h
- half-life ([3]; male, ICR (CD-1), mouse, plasma, po, 3 mg/kg, PO 3 mg/kg, mice plasma, Mean, read-out: T1/2 (converted)): 14.4 h
- half-life ([3]; male, ICR (CD-1), mouse, plasma, po, 3 mg/kg, oral administration, read-out: half-life (T1/2) in mouse plasma (converted)): ~14 h
- bioavailability ([3]; male, ICR (CD-1), mouse, plasma, PO 3 mg/kg vs IV 1 mg/kg, mice, read-out: F(%)): 49.2%
- AUC(0-t) [3, 6]: 31900 ng·h/mL
- Tmax [3, 6]: 2 h
- AUC(0-inf) [3, 6]: 67700 ng·h/mL
- Cmax ([3]; male, ICR (CD-1), mouse, IV 1 mg/kg, mice plasma, Mean, read-out: Cmax): 2670 ng/mL
- MRT inf [3, 6]: 35.7 h
- AUC(0-t) [3, 7]: 47000 ng·h/mL
- Tmax [3, 7]: 3.33 h
- AUC(0-inf) [3, 7]: 70000 ng·h/mL
- Cmax ([3]; male, ICR (CD-1), mouse, PO 3 mg/kg, mice plasma, Mean, read-out: Cmax): 3690 ng/mL
- MRT inf [3, 7]: 21.7 h
- half-life (T1/2) in mouse plasma ([3]; oral administration): ~15 h
- IC50 (SU-DHL5; [8]): 0.23 µM
- MTD (in vivo): 200 mg/kg

SMILES: O=C1/C(=N\Nc2nccs2)C(c2ccccc2)=NN1c1nc(-c2ccccc2)cs1 [BTSA1]
- IC50 (SU-DHL5; [8]): 0.4 µM

SMILES: CC1=NN(c2nc(-c3ccccc3)cs2)C(=O)C1=NNc1nccs1 [Compound 3]
- IC50 (BAX): 2380 nM
- IC50 (SU-DHL5; [5]): > 25 µM

SMILES: O=C(O)c1cccc(NN=C2C(=O)N(c3nc(-c4ccccc4)cs3)N=C2c2ccccc2)c1 [Compound 5]
- IC50 (BAX): 497 nM
- IC50 (SU-DHL5; [8]): 2.8 µM

SMILES: Cc1c(-c2ccc(N3CCc4cccc(C(=O)Nc5nc6ccccc6s5)c4C3)nc2C(=O)O)cnn1CC12CC3CC(CC(C3)C1)C2 [Compound A-1331852]
- single agent effect on cell viability (U937): moderately potent as single agent
- single agent effect on cell viability (OCI-AML3): moderately potent as single agent
- single agent effect on cell viability (COLO230): not effective
- single agent effect on cell viability (SW480): potent

SMILES: CC1(C)CCC(c2ccc(Cl)cc2)=C(CN2CCN(c3ccc(C(=O)NS(=O)(=O)c4ccc(N[C@H](CCN5CCOCC5)CSc5ccccc5)c(S(=O)(=O)C(F)(F)F)c4)cc3)CC2)C1 [Navitoclax, 4-(4-{[2-(4-Chlorophenyl)-5,5-dimethyl-1-cyclohexen-1-yl]methyl}-1-pipera-zinyl)-N-[(4-{[(2R)-4-(4-morpholinyl)-1-(phenylsulfanyl)-2-butanyl]amino}-3-[(trifluoromethyl)sulfonyl]phenyl)sulfonyl]benzamide, reference compound]
- body weight, blood counts and organs [2]: lymphocyte, white blood cell and platelet counts reached levels below normal counts upon a single treatment
- IC50 (solid tumor cell lines; 72 hrs, solid tumor cell lines): > 10000 nM
- single agent effect on cell viability (SW480): resistant
- tumor growth (SW480 xenograft): no significant efficacy in reducing tumor growth
- MTD [4]: 100 mg/kg/po
- BAX:BCL-XL complexes by BAX co-immunoprecipitation (BAX:BCL-XL complexes): disrupted BAX:BCL-XL complexes

SMILES: CN[C@@H]1C[C@H]2O[C@@](C)([C@@H]1OC)n1c3ccccc3c3c4c(c5c6ccccc6n2c5c31)C(=O)NC4 [staurosporine]
- sensitivity of Calu-6 cells lacking BAX expression (Calu-6 BAX KO cells): still sensitive
